In this assay the target is T1, FLT3 ITD, F691L (Homo sapiens, UniProt P36888, F691L, form not given).
T1 construct: fused on or other part: DNA tag for qPCR read-out (T7 phage fusion, or DNA-tagged kinase made in HEK-293 cells)
T1 sequence (P36888 1-993 F691L): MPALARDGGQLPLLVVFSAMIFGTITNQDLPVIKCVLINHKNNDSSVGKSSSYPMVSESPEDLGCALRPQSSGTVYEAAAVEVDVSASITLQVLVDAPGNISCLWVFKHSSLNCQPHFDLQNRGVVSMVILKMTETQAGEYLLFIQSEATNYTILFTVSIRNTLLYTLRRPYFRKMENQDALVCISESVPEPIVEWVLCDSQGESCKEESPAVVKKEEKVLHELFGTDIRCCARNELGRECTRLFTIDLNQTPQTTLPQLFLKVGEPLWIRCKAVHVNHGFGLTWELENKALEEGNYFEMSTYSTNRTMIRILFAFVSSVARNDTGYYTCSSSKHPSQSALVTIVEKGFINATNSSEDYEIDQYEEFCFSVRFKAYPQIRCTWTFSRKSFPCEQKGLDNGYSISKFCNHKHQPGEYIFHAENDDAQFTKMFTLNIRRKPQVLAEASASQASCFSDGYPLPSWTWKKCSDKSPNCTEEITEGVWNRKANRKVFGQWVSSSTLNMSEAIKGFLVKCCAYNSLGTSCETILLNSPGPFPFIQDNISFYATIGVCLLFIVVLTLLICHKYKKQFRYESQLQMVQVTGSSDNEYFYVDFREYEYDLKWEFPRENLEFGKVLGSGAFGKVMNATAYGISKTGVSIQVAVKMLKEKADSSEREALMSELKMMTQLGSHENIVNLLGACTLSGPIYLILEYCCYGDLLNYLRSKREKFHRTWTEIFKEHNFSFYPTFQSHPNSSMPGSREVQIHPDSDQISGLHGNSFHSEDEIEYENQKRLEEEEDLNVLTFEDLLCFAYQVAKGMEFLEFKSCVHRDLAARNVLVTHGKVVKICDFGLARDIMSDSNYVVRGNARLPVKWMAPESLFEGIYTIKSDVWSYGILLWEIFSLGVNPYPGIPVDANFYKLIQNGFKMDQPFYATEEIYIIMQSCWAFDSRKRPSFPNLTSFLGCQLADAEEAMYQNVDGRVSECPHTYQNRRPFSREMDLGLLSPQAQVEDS
Nature of the assay: DiscoverX KINOMEscan competition binding, FLT3 ITD, F691L. The settings on record: no ATP. An excerpt: Kinase binding data were obtained for various exemplary compounds prepared according to Examples 2-15 using the DiscoverX KINOMEscan® active site-directed competition binding site-directed assay protocol described below. […] As a result, the data report thermodynamic interaction affinities (Kd values), rather than IC50 values that are dependent on ATP concentrations. The assay uses a DNA-tagged version of the protein kinase, and an immobilized ligand bound to a solid support. Compounds that directly or indirectly prevent kinase binding to the immobilized ligand reduce the amount of kinase captured on the solid support, which is detected using an ultra-sensitive qPCR method. Affinity constants reported from the assay have been reported to be independent of the immobilized ligand used that is coupled to the solid support (See supplemental information in Fabian, M. A. et. al., (2005) Nat. […] Wodicka, L. […] Biol. 17, 1241-1249.) Kinase-tagged T7 phage strains were prepared in an E. coli host derived from the BL21 strain. E. coli were grown to log-phase and infected with T7 phage and incubated with shaking at 32° C. until lysis. […] Kds were determined using an 11-point 3-fold compound dilution series with three DMSO control points. […] The kinase concentration in the eluates was measured by qPCR. Binding constants (Kds) were calculated with a standard dose-response curve using the Hill equation. […]

The term Kd denotes the concentration at which binding is half-saturated. The molecule `COc1cc2ncc(-c3nc(N[C@H]4CNCC[C@@H]4F)c(F)cc3F)n2nc1C1CCC1` [Compound 15a, 6-(6-cyclobutyl-7-methoxyimidazo[1,2-b]pyridazin-3-yl)-3,5-difluoro-N-((3S,4S)-4-fluoropiperidin-3-yl)pyridin-2-amine] showed a Kd of less than 170 pM.

These data come from patent US20250368648A1, “MULTI-CYCLIC IRAK AND FLT3 INHIBITING COMPOUNDS AND USES THEREOF” (CHILDREN'S HOSPITAL MEDICAL CENTER, priority 2022, published 2025).
